Measurements from article PMC8896310 (Cell, 2022).

Tests used:
BVU_0767 = target: T1, BVU_0767 (Phocaeicola vulgatus, UniProt A6KYF7); experiment: DTNB thioesterase assay, […] nm; format: biochemical; conditions: 100 uM acyl-CoA, 25 nM enzyme, 60 mM potassium phosphate pH 7.4, 37 C
T1 sequence (A6KYF7 1-137): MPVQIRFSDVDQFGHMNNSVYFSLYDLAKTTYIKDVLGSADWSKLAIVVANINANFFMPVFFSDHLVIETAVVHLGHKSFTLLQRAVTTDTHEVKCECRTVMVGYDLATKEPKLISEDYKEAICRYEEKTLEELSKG

BT_3942 = target: T2, BT_3942 (Bacteroides thetaiotaomicron, UniProt Q8A0S9); experiment: DTNB thioesterase assay, […] nm; format: biochemical; conditions: 100 uM acyl-CoA, 25 nM enzyme, 60 mM potassium phosphate pH 7.4, 37 C
T2 sequence (Q8A0S9 1-145): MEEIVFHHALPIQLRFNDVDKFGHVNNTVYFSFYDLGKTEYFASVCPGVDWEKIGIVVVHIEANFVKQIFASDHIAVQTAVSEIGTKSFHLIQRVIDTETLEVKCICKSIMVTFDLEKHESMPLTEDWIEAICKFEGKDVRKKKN

CCC(=O)SCCNC(=O)CCNC(=O)[C@H](O)C(C)(C)COP(=O)(O)OP(=O)(O)OC[C@H]1O[C@@H](n2cnc3c(N)ncnc32)[C@H](O)[C@@H]1OP(=O)(O)O [propionyl-CoA]
DTNB thioesterase assay, 412 nm (BVU_0767): different substrate specificity for hydrolysis of short chain lengths of Acyl-CoAs and propionyl- and butyryl-CoA | DTNB thioesterase assay, 412 nm (BT_3942): different substrate specificity for hydrolysis of short chain lengths of Acyl-CoAs and propionyl- and butyryl-CoA

CCCC(=O)SCCNC(=O)CCNC(=O)[C@H](O)C(C)(C)COP(=O)(O)OP(=O)(O)OC[C@H]1O[C@@H](n2cnc3c(N)ncnc32)[C@H](O)[C@@H]1OP(=O)(O)O [butyryl-CoA]
DTNB thioesterase assay, 412 nm (BVU_0767): different substrate specificity for hydrolysis of short chain lengths of Acyl-CoAs and propionyl- and butyryl-CoA
